{"source": "patent US7649016B2", "about": "“Antitumor medicine” (Nihon Starch Co., Ltd., priority 2003, dated 2010)", "key": {"[1]": {"test_system": "B16 melanoma cells in C57 BL/6 mice", "assay": "Cancerous peritonitis model, survival of mice with B16 melanoma cells in the abdominal cavity", "assay_type": "in vivo, mouse", "procedure": "B16 melanoma cells (5×10^6 cells) were disseminated in the abdominal cavities of C57 BL/6 mice, PBS (phosphate buffer) and an ascopyrone P solution were then administered (dosage: 200 mg/kg) into the abdominal cavities every day from the 15th day, and the survival rates were examined (cancerous peritonitis model). It was confirmed that, in this experimental system, when the B16 melanoma cells were disseminated in the abdominal cavities of the mice in advance, the mice died from the 14th day or later when nothing or PBS was applied. The results of examining the life extending effect of ascopyrone P on terminal cancer models by use of the present experimental system are shown in FIG. 8. […] This indicates the antitumor effect in vivo of ascopyrone P.\nAs in Example 1, B16 melanoma cells (5×10^6 cells) were disseminated in the abdominal cavities of C57 BL/6 mice, and PBS and 1,5-D-anhydrofructose were administered (dosage: 200 mg/kg) into the abdominal cavities every day from the 2nd day. The average survival days after the tumor cells were disseminated were 19 days for those given 1,5-D-anhydrofructose and 14 days for those given PBS as controls."}, "[2]": {"test_system": "THP-1 (promyelocytic leukemia cells)", "assay": "Percentage of dead cells by PI staining/FACS", "assay_type": "cell-based, human", "procedure": "(§1) Adhesion cancer cell lines C57 BL/6 mouse melanoma cell lines (B16 melanoma), human lung adenocarcinoma cell lines (A549), human keratinocyte derived tumor-like cell lines (HaCaT) and human cervical cancer cell lines (Hela) were cultured at 37° C. and a CO2 concentration of 5% in DMEM media having 10% FCS (fetal calf serum) and 2% penicillin/streptomycin added thereto. Floating tumor cells THP-1 (promyelocytic leukemia cell lines) were cultured at 37° C. and a CO2 concentration of 5% in an RPMI 1640 medium containing 10% FCS and 2% penicillin/streptomycin.\n(§2) The cell culture media were stimulated by ascopyrone P solutions (prepared by dissolving ascopyrone P in dimethyl sulfoxide (DMSO)) of various concentrations and cultured for a predetermined time. Thereafter, cells were collected in a floating state by use of trypsin. Then, the cells were fixed by 70% ethanol at 4° C. for 30 minutes and then stained with a 50 μg/ml propidium iodine (PI) solution. […]\n(§3) In the examination, in addition to the B16 melanoma cells, 4 types of human cancer cell lines (THP-1: promyelocytic leukemia, HeLa: cervical cancer, A549: alveolar cell carcinoma, HaCaT: cutaneous cancer model cells) were examined for the proportion of dead cells induced by stimulation of ascopyrone P. To the cancer cell culture solutions, ascopyrone P was added to 1.4 mM, and the percentages of dead cells after 48 hours were determined."}, "[3]": {"test_system": "B16 melanoma (C57 BL/6 mouse melanoma cells)", "assay": "Percentage of dead cells by PI staining/FACS", "assay_type": "cell-based", "details": "1.4 mM, after 48 hours", "procedure": "as §1, §2, §3"}, "[4]": {"test_system": "B16 melanoma cells", "assay": "Cell growth inhibition, number of living cells by crystal violet staining", "assay_type": "cell-based, mouse", "details": "0.70 mM final concentration, one week culture", "procedure": "After B16 melanoma cells having multiplied on a 6-well plate were fixed by 2% glutaraldehyde, they were stained with 4% crystal violet, and stainable cells were determined to be living cells.\n5×10^3 cells/ml of B16 melanoma cells (C57 BL/6 mouse melanoma cells) were disseminated into a 6-well plate. After the cells were attached to the bottom face (24 hours), an ascopyrone P solution (using DMSO as a solvent) was added in equal amounts to achieve a final concentration of 0 to 0.70 mM in the culture solutions. After the cells were cultured at 37° C. and a CO2 concentration of 5% for one week, the number of living cells was counted."}, "[5]": {"test_system": "HeLa (human cervical cancer cells)", "assay": "Percentage of dead cells and cell cycle by PI staining/FACS", "assay_type": "cell-based", "details": "1.4 mM", "procedure": "as §1\n(§4) The cell culture media were stimulated by ascopyrone P solutions (prepared by dissolving ascopyrone P in dimethyl sulfoxide (DMSO)) of various concentrations and cultured for a predetermined time. Thereafter, cells were collected in a floating state by use of trypsin. Then, the cells were fixed by 70% ethanol at 4° C. for 30 minutes and then stained with a 50 μg/ml propidium iodine (PI) solution. After 30 minutes, DNA histograms were prepared by use of an FACS to examine cell death percentages and cell cycles.\nas §3\nTherefore, when ascopyrone P is given to a living body as an antitumor medicine, it is expected that it specifically exerts a cell killing effect only on tumor cells without affecting normal cells most of which are conceived in the G0/1 period of the cell cycle."}, "[6]": {"test_system": "B16 melanoma cells in C57 BL/6 mice", "assay": "Subcutaneous B16 melanoma tumor volume and metastasis", "assay_type": "in vivo, mouse", "details": "25 mg/kg subcutaneously into tumor spots every other day, 3rd to 13th day", "procedure": "Next, B16 melanoma cells (1×10^5 cells) were subcutaneously disseminated in the backs of C57 BL/6 mice, PBS and ascopyrone P were subcutaneously injected into tumor spots (using a solution of ascopyrone P dissolved in PBS in a dosage of 25 mg/kg) every other day from the 3rd day to the 13th day, and the antitumor effects were evaluated based on the volumes (long diameter×short diameter^2×0.52) of the tumors (FIG. 10). […] In general, it is said in clinical practice that an antitumor medicine with a lower tumor growing rate provides better prognosis."}, "[7]": {"test_system": "HaCaT (human keratinocyte derived tumor-like cells)", "assay": "Percentage of dead cells by PI staining/FACS; DNA fragmentation; FCS 10% vs FCS 1%", "assay_type": "cell-based", "details": "1.4 mM", "procedure": "as §1, §4, §3\nIt is known that although HaCaT cells have characteristics of tumor cells in the presence of 10% FCS, they have characteristics close to those of normal cells in the presence of low-concentration FCS (1% or lower). By taking advantage of this characteristic, the influence of ascopyrone P on normal cells was examined."}, "[8]": {"test_system": "A549 (human alveolar cell carcinoma)", "assay": "Percentage of dead cells by PI staining/FACS; DNA fragmentation", "assay_type": "cell-based", "procedure": "as §1, §2, §3"}, "[9]": {"test_system": "integrin (THP-1 cell adhesion)", "assay": "Number of adhered cells after phorbol ester (PMA) stimulation, function of integrin", "assay_type": "cell-based, human", "details": "THP-1, 12.3 mM, one hour", "procedure": "A 1,5-D-anhydrofructose solution (prepared by dissolving 1,5-D-anhydrofructose in DMSO) was added to the THP-1 cell culture medium, and the resulting medium was then stimulated by phorbol ester (PMA; phorbol myristate acetate). After the medium was cultured at 37° C. and a CO2 concentration of 5% for one hour, adhered cells were stained with a Giemsa staining method.\nIt is known that when leukemia cell lines are stimulated by phorbol ester (PMA), activation of adhesion molecule integrin is observed, and as a result, production of active oxygen, enhancement of cell adhesion and cell infiltration are induced as cell phenomena. Thus, THP-1 cell lines were cultured in the presence of 1,5-D-anhydrofructose, and the function of integrin was evaluated by use of the number of adherent cells after stimulation of the lines by phorbol ester as an index."}}}
{"smiles": "O=C1CC(CO)OC=C1O", "note": "(stereo not drawn) [ascopyrone P, 2-hydroxymethyl-5-hydroxy-2,3-dihydro-4H-pyran-4-one]", "values": [{"measurement": "proportion of mice with 3 times or longer life time expansion than controls (PBS)", "setting": "[1]; 200 mg/kg into the abdominal cavity every day from the 15th day", "result": 40, "unit": "%"}, {"measurement": "average survival days", "setting": "[1]; 200 mg/kg into the abdominal cavity every day from the 15th day, PBS controls 4 days", "result": 8, "unit": "days"}, {"measurement": "cell death", "setting": "[2]; THP-1, 0.35 mM, within 48 hours", "result": "induced cell death"}, {"measurement": "Percentage of Dead Cells (%)", "setting": "[2]; THP-1, 1.4 mM, after 48 hours", "result": "33.3 ± 0.7", "unit": "%"}, {"measurement": "Percentage of Dead Cells (%)", "setting": "[3]", "result": "31.9 ± 3.6", "unit": "%"}, {"measurement": "number of living cells (control DMSO = 100%)", "setting": "[4]", "result": "≤ 50", "unit": "%"}, {"measurement": "Percentage of Dead Cells (%)", "setting": "[5]; after 48 hours", "result": "8.3 ± 2.0", "unit": "%"}, {"measurement": "G2/M period cell population", "setting": "[5]; FCS 10%, 24 hours", "result": "significant decrease"}, {"measurement": "S-period cell population", "setting": "[5]; FCS 10%, 24 hours", "result": "significant increase"}, {"measurement": "cell death", "setting": "[5]; FCS 10%, 48 hours", "result": "about 10%"}, {"measurement": "metastasis of tumors at dissection", "setting": "[6]", "result": "hardly observed"}, {"measurement": "tumor volume versus PBS", "setting": "[6]; from the 7th day and later", "result": "significantly smaller tumor volume"}, {"measurement": "tumor volume versus PBS", "setting": "[6]; until the 7th day", "result": "no difference"}, {"measurement": "apoptosis-specific DNA fragmentation", "setting": "[7]; 48 hours, agarose gel electrophoresis", "result": "apoptosis-specific DNA fragmentation was observed"}, {"measurement": "Percentage of Dead Cells (%)", "setting": "[7]; after 48 hours", "result": "27.2 ± 3.1", "unit": "%"}, {"measurement": "cell death", "setting": "[7]; FCS 1% (normal-cell-like)", "result": "almost no cell death was observed"}, {"measurement": "cell death", "setting": "[7]; FCS 10% (tumor-like growth), within 48 hours", "result": "about 30%"}, {"measurement": "Percentage of Dead Cells (%)", "setting": "[8]; A549, 1.4 mM, after 48 hours", "result": "48.6 ± 3.8", "unit": "%"}, {"measurement": "apoptosis-specific DNA fragmentation", "setting": "[8]; A549 cells", "result": "the same result was also obtained"}]}
{"smiles": "O=C1CO[C@H](CO)[C@@H](O)[C@@H]1O", "note": "[1,5-D-anhydrofructose]", "values": [{"measurement": "average survival days after the tumor cells were disseminated", "setting": "[1]; 200 mg/kg into the abdominal cavity every day from the 2nd day, PBS controls 14 days", "result": 19, "unit": "days"}, {"measurement": "cell adhesion by phorbol ester (remaining)", "setting": "[9]", "result": "about 25%"}]}
